# Species on record: Rattus norvegicus
# Assay: DrugMatrix - Regimen: Daily Repeat
# Format: toxicity, organism-based, Sprague-Dawley
# Design: regimen Daily Repeat, gender Male, age 6-8 weeks
# Settings: in vivo, po, route oral GAVAGE, […]; for ABSOLUTE BASOPHIL / ABSOLUTE EOSINOPHIL / ABSOLUTE LYMPHOCYTE / ABSOLUTE MONOCYTE / ABSOLUTE SEGMENTED NEUTROPHIL / BASOPHIL / EOSINOPHIL / ERYTHROCYTE COUNT / HEMATOCRIT / HEMOGLOBIN / LEUKOCYTE COUNT / LYMPHOCYTE / MEAN CORPUSCULAR HEMOGLOBIN / MEAN CORPUSCULAR HEMOGLOBIN CONCENTRATION / MEAN CORPUSCULAR VOLUME / MONOCYTE / NEUTROPHIL / NUCLEATED RED BLOOD CELLS / PLATELET COUNT: tissue Blood; for ALANINE AMINOTRANSFERASE / ALBUMIN / ALKALINE PHOSPHATASE / ASPARTATE AMINOTRANSFERASE / BLOOD UREA NITROGEN / CARBON DIOXIDE / CHLORIDE / CHOLESTEROL / CREATINE PHOSPHOKINASE / CREATININE / GLUCOSE / LACTATE DEHYDROGENASE / LIPASE / PHOSPHORUS / POTASSIUM / SODIUM / TOTAL BILIRUBIN / TOTAL PROTEIN / URIC ACID: tissue Plasma
# [1] = 280 mg/kg, 120 h, dose level High, time 5 day
# [2] = 72 h, dose 2.8 mg/Kg, dose level Low, time 3 day
# [3] = 120 h, dose 2.8 mg/Kg, dose level Low, time 5 day
compound,measurement,setting,value
CC/C(=C(/CC)c1ccc(O)cc1)c1ccc(O)cc1 [DIETHYLSTILBESTROL],ABSOLUTE BASOPHIL,[1],0 CELLS/uL
same,ABSOLUTE EOSINOPHIL,[1],0 CELLS/uL
same,ABSOLUTE LYMPHOCYTE,[1],5802 CELLS/uL
same,ABSOLUTE MONOCYTE,[1],16.67 CELLS/uL
same,ABSOLUTE SEGMENTED NEUTROPHIL,[1],514.67 CELLS/uL
same,BASOPHIL,[1],0%
same,EOSINOPHIL,[1],0%
same,ERYTHROCYTE COUNT,[1],5.3 x10E6/uL
same,HEMATOCRIT,[1],33.4%
same,HEMOGLOBIN,[1],12.67 G/DL
same,LEUKOCYTE COUNT,[1],6.33 x10E3/uL
same,LYMPHOCYTE,[1],91.33%
same,MEAN CORPUSCULAR HEMOGLOBIN,[1],23.9 pg
same,MEAN CORPUSCULAR HEMOGLOBIN CONCENTRATION,[1],37.97 G/DL
same,MEAN CORPUSCULAR VOLUME,[1],62.97 fL
same,MONOCYTE,[1],0.33%
same,NEUTROPHIL,[1],8.33%
same,NUCLEATED RED BLOOD CELLS,[1],0.33 /100WBC
same,PLATELET COUNT,[1],1806.33 x10E3/uL
same,ALANINE AMINOTRANSFERASE,[1],47.33 u/L
same,ALBUMIN,[1],3.6 G/DL
same,ALKALINE PHOSPHATASE,[1],594.67 u/L
same,ASPARTATE AMINOTRANSFERASE,[1],59 u/L
same,BLOOD UREA NITROGEN,[1],14 mg/dL
same,CARBON DIOXIDE,[1],28.33 mmol/L
same,CHLORIDE,[1],100 MEQ/L
same,CHOLESTEROL,[1],35 mg/dL
same,CREATINE PHOSPHOKINASE,[1],88.33 u/L
same,CREATININE,[1],0.3 mg/dL
same,GLUCOSE,[1],144.67 mg/dL
same,LACTATE DEHYDROGENASE,[1],47.33 u/L
same,LIPASE,[1],9 u/L
same,PHOSPHORUS,[1],9.33 mg/dL
same,POTASSIUM,[1],5.01 MEQ/L
same,SODIUM,[1],147.6 MEQ/L
same,TOTAL BILIRUBIN,[1],0.6 mg/dL
same,TOTAL PROTEIN,[1],6.27 G/DL
same,URIC ACID,[1],0.3 mg/dL
same,ABSOLUTE BASOPHIL,[2],0 CELLS/uL
same,ABSOLUTE EOSINOPHIL,[2],0 CELLS/uL
same,ABSOLUTE LYMPHOCYTE,[2],8607.33 CELLS/uL
same,ABSOLUTE MONOCYTE,[2],102 CELLS/uL
same,ABSOLUTE SEGMENTED NEUTROPHIL,[2],1057.33 CELLS/uL
same,BASOPHIL,[2],0%
same,EOSINOPHIL,[2],0%
same,ERYTHROCYTE COUNT,[2],5.52 x10E6/uL
same,HEMATOCRIT,[2],33.53%
same,HEMOGLOBIN,[2],13.07 G/DL
same,LEUKOCYTE COUNT,[2],9.77 x10E3/uL
same,LYMPHOCYTE,[2],88%
same,MEAN CORPUSCULAR HEMOGLOBIN,[2],23.73 pg
same,MEAN CORPUSCULAR HEMOGLOBIN CONCENTRATION,[2],39.03 G/DL
same,MEAN CORPUSCULAR VOLUME,[2],60.87 fL
same,MONOCYTE,[2],1%
same,NEUTROPHIL,[2],11%
same,NUCLEATED RED BLOOD CELLS,[2],0 /100WBC
same,PLATELET COUNT,[2],1167 x10E3/uL
same,ALANINE AMINOTRANSFERASE,[2],57.33 u/L
same,ALBUMIN,[2],3.83 G/DL
same,ALKALINE PHOSPHATASE,[2],627.67 u/L
same,ASPARTATE AMINOTRANSFERASE,[2],71 u/L
same,BLOOD UREA NITROGEN,[2],7.67 mg/dL
same,CARBON DIOXIDE,[2],26.67 mmol/L
same,CHLORIDE,[2],105.33 MEQ/L
same,CHOLESTEROL,[2],24.33 mg/dL
same,CREATINE PHOSPHOKINASE,[2],222.33 u/L
same,CREATININE,[2],0.12 mg/dL
same,GLUCOSE,[2],155.33 mg/dL
same,LACTATE DEHYDROGENASE,[2],64 u/L
same,LIPASE,[2],8 u/L
same,PHOSPHORUS,[2],9.27 mg/dL
same,POTASSIUM,[2],5.23 MEQ/L
same,SODIUM,[2],147.13 MEQ/L
same,TOTAL BILIRUBIN,[2],0.13 mg/dL
same,TOTAL PROTEIN,[2],5.6 G/DL
same,URIC ACID,[2],0.6 mg/dL
same,ABSOLUTE BASOPHIL,[3],0 CELLS/uL
same,ABSOLUTE EOSINOPHIL,[3],46 CELLS/uL
same,ABSOLUTE LYMPHOCYTE,[3],6817.67 CELLS/uL
same,ABSOLUTE MONOCYTE,[3],68 CELLS/uL
same,ABSOLUTE SEGMENTED NEUTROPHIL,[3],335 CELLS/uL
same,BASOPHIL,[3],0%
same,EOSINOPHIL,[3],0.67%
same,ERYTHROCYTE COUNT,[3],5.68 x10E6/uL
same,HEMATOCRIT,[3],36.33%
same,HEMOGLOBIN,[3],13.8 G/DL
same,LEUKOCYTE COUNT,[3],7.27 x10E3/uL
same,LYMPHOCYTE,[3],93.33%
same,MEAN CORPUSCULAR HEMOGLOBIN,[3],24.3 pg
same,MEAN CORPUSCULAR HEMOGLOBIN CONCENTRATION,[3],38.03 G/DL
same,MEAN CORPUSCULAR VOLUME,[3],64 fL
same,MONOCYTE,[3],0.67%
same,NEUTROPHIL,[3],5.33%
same,NUCLEATED RED BLOOD CELLS,[3],0.33 /100WBC
same,PLATELET COUNT,[3],1219.67 x10E3/uL
same,ALANINE AMINOTRANSFERASE,[3],60.67 u/L
same,ALBUMIN,[3],3.7 G/DL
same,ALKALINE PHOSPHATASE,[3],729.67 u/L
same,ASPARTATE AMINOTRANSFERASE,[3],65.67 u/L
same,BLOOD UREA NITROGEN,[3],11.33 mg/dL
same,CARBON DIOXIDE,[3],26.33 mmol/L
same,CHLORIDE,[3],103.33 MEQ/L
same,CHOLESTEROL,[3],19.33 mg/dL
same,CREATINE PHOSPHOKINASE,[3],162.33 u/L
same,CREATININE,[3],0.19 mg/dL
same,GLUCOSE,[3],151.33 mg/dL
same,LACTATE DEHYDROGENASE,[3],62 u/L
same,LIPASE,[3],9.33 u/L
same,PHOSPHORUS,[3],8.9 mg/dL
same,POTASSIUM,[3],4.57 MEQ/L
same,SODIUM,[3],146.9 MEQ/L
same,TOTAL BILIRUBIN,[3],0.13 mg/dL
same,TOTAL PROTEIN,[3],6.03 G/DL
same,URIC ACID,[3],0.5 mg/dL
